Experiments:
[1] = target: T1, recombinant human bradykinin B2 receptor (Homo sapiens, UniProt P30411); test: [3H]-BK competition radioligand binding to human cloned B2 receptor (CHO cell membranes); details: 0.2 nM [3H]-bradykinin, CHO membranes, 60 min 23° C.; mean ± SEM or single value; Ki from IC50 by Cheng-Prusoff; read-out: [3H]-BK Binding to Human Cloned B2 Receptor (Ki)
T1 construct: expressed in transfected cells; host or cells: Chinese hamster ovary (CHO) cells, membrane homogenates
T1 sequence (P30411 1-391): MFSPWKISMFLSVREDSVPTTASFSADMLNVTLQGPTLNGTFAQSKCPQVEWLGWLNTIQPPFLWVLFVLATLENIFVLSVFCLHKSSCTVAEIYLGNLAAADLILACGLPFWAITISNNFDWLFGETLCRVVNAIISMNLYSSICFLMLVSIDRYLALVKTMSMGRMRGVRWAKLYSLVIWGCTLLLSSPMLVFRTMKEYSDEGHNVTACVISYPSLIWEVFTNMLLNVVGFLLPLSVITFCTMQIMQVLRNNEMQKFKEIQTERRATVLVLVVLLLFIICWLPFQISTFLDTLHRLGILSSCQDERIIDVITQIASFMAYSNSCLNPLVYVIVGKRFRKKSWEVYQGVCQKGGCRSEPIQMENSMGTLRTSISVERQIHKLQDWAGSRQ
Protocol: Chinese hamster ovary (CHO) cell membrane homogenates (2.5 μg protein) expressing the recombinant human bradykinin B2 receptor were incubated for 60 min at 23° C. with 0.2 nM [^3H]-bradykinin (95.5 Ci/mmole, PerkinElmer) in the absence or presence of the test compound in a buffer containing 50 mM Tris/HCl (pH 7.4), 0.2 g/L 1-10-phenanthroline and 0.1% BSA. All reagent and test compound additions to the assay plates were made using Biomek 3000 robotic workstations (Beckman Instruments, Fullerton, Calif.). Nonspecific binding was determined in the presence of 1 μM unlabeled bradykinin. Following the incubation, the assay was terminated by rapid filtration under vacuum through glass fiber filters (GF/C, PerkinElmer) presoaked with 0.3% polyethyleneimine and rinsed several times with an ice-cold 50 mM Tris-HCl buffer using a 96-sample cell harvester (Tomtec). The filters were air-dried and the radioactivity counted in a beta-scintillation counter (Topcount, PerkinElmer) using a scintillation cocktail (Microscint 20, PerkinElmer) (Sharif and Whiting, Neurochem. Int. 18: 89-96, 1991). Competitive binding inhibition curves were generated using a 7-point concentration—response of test compound in duplicate. Bradykinin peptide was also tested as an internal control in the assay. The data were analyzed using nonlinear, iterative curve-fitting to obtain the potency and intrinsic activities of the test agents as previously described (Sharif et al. J. Pharmacol. Exp. Ther. 286: 1094-1102, 1998; Sharif et al. Invest Ophthalmol. Vis. Sci. 39:2562-2571, 1998; Kelly et al. J. Pharmacol. Exp. Ther. 304: 238-245, 2003). Determined IC50 values were converted to Ki values using the standard Cheng-Prusoff equation.

[2] = target: T2, BK receptors in human ciliary muscle cells (h-CM) (Homo sapiens, UniProt P30411); test: Functional assay measuring [Ca2+]i mobilization (FLIPR) in h-CM cells; assay type: cell-based; details: class symbols (in μM), read-out: CaM (EC50)
T2 construct: h-CM cells expressing BK receptors were seeded; endogenous in cells; host or cells: human ciliary muscle (h-CM) cells
T2 sequence (P30411 1-391): T1 sequence (P30411 1-391)
Protocol: On the day of the experiment, media was removed, cells were rinsed and 50 μL of serum-free media added. One vial of FLIPR Calcium Assay Kit dye was reconstituted in 50 mL of a FLIPR buffer consisting of Hank's Balanced Salt Solution (HBSS), 20 mM HEPES, and 2.5 mM probenecid, pH 7.4. Cells were loaded with the calcium-sensitive dye by addition of an equal volume (50 μL) to each well of the 96-well plate and incubated with dye for 1 h at 23° C. […] After this time, the test compound plate and cell plate were placed in a Fluorescence Imaging Plate Reader (FLIPR-Tetra®) instrument (Molecular Devices/MDSPharma, Sunnyvale, Calif.). At the beginning of an experimental run, a signal test was performed to check the basal fluorescence signal from the dye-loaded cells and the uniformity of the signal across the plate. […] An aliquot (25 μL) of the test compound was added to the existing 100 μL dye-loaded cells at a dispensing speed of 50 μL/sec. Intracellular calcium mobilization was measured by monitoring real-time changes in cellular fluorescence upon test compound addition. Fluorescence data were collected in real-time at 1.0 sec intervals for the first 60 seconds and at 6.0 second intervals for an additional 120 seconds. Baseline fluorescence readings were normalized across the plate and background-corrected from negative control wells. […] EC50 values were determined by 4-parameter nonlinear curve fitting of the concentration-response curve. Calibration of the instrument was performed using manufacturer's standard procedures.

[3] = test system: primary human ciliary muscle cells (h-CM); test: Total prostaglandin (PG) release from primary h-CM cells (EIA); assay type: cell-based; details: Homo sapiens, 1 h, 1 hour at 37° C., class symbols (in μM)
Protocol: BK agonist compounds of Formula 1 were evaluated for the ability to induce prostaglandin (PG) release from primary human ciliary muscle cells (h-CM). Briefly, h-CM cells were grown to confluence in FNC-coated 24-well culture plates and serum-starved (0.8% FBS) for 24 hours prior to the experiment. Cells were stimulated with a 9-pt concentration-response (0.1 nM-10 μM) of bradykinin or BK agonist for 1 hour at 37° C. with subsequent sample recovery and processing for total PG measurement. Total PG measurement was determined using a total Prostaglandin Screening EIA kit (cat#514012) purchased from Cayman Chemical (Ann Arbor, Mich.). The assay was conducted according to the package insert from the manufacturer.

Compound | Ki [1] | EC50 [2] | EC50 [3]
COc1nc2c(OCc3c(Cl)ccc(N(C)C(=O)CNC(=O)CCN4CCC(NC(C)=O)CC4)c3Cl)cccc2n1Cc1ccccn1 [Compound 8, 3-(4-acetamidopiperidin-1-yl)-N-(2-((2,4-dichloro-3-(((2-methoxy-1-(pyridin-2-ylmethyl)-1H-benzo[d]imidazol-4-yl)oxy)methyl)phenyl)(methyl)amino)-2-oxoethyl)propanamide] | 68 ± 16 nM | < 0.1 µM | < 0.1 µM
CCOC(=O)NC1=NCC(CCC(=O)NCC(=O)N(C)c2ccc(Cl)c(COc3cccc4c3nc(OC)n4Cc3ccccn3)c2Cl)CN1 (stereo not drawn) [Compound 9, Ethyl (5-(3-((2-((2,4-dichloro-3-(((2-methoxy-1-(pyridin-2-ylmethyl)-1H-benzo[d]imidazol-4-yl)oxy)methyl)phenyl)(methyl)amino)-2-oxoethyl)amino)-3-oxopropyl)-1,4,5,6-tetrahydropyrimidin-2-yl)carbamate] | 667 ± 101 nM | < 0.1 µM | 0.1 to 1 µM
COc1nc2c(OCc3c(Cl)ccc(N(C)C(=O)CNC(=O)CNC4CCC(NC(C)=O)CC4)c3Cl)cccc2n1Cc1ccccn1 (stereo not drawn) [Compound 10, 2-(2-((4-acetamidocyclohexyl)amino)acetamido)-N-(2,4-dichloro-3-(((2-methoxy-1-(pyridin-2-ylmethyl)-1H-benzo[d]imidazol-4-yl)oxy)methyl)phenyl)-N-methylacetamide] | 76 ± 16 nM | < 0.1 µM | > 1 µM
CNC(=O)C1CCN(CCC(=O)NCC(=O)N(C)c2ccc(Cl)c(COc3cccc4c3nc(OC)n4Cc3ccccn3)c2Cl)CC1 [Compound 11] | 391 ± 35 nM | < 0.1 µM | > 1 µM
CNC(=O)N1CCN(CCCC(=O)NCC(=O)N(C)c2ccc(Cl)c(COc3cccc4c3nc(OC)n4Cc3ccccn3)c2Cl)CC1 [Compound 12] | 261 ± 195 nM | < 0.1 µM | > 1 µM
CCc1nc2c(OCc3c(Cl)ccc(N(C)C(=O)CNC(=O)CCN4CCN(C(=O)NC)CC4)c3Cl)cccc2n1Cc1ccccn1 [Compound 19, 4-(3-((2-((2,4-dichloro-3-(((2-ethyl-1-(pyridin-2-ylmethyl)-1H-benzo[d]imidazol-4-yl)oxy)methyl)phenyl)(methyl)amino)-2-oxoethyl)amino)-3-oxopropyl)-N-methylpiperazine-1-carboxamide] | 262 ± 11 nM | < 0.1 µM | > 1 µM
CNC(=O)N1CCN(CC(=O)NCC(=O)N(C)c2ccc(Cl)c(COc3cccc4c3nc(OC)n4Cc3ccccn3)c2Cl)CC1 [Compound 20] | 1090 ± 138 nM | 0.1 to 1 µM | > 1 µM
COc1nc2c(OCc3c(Cl)ccc(N(C)C(=O)CNC(=O)C4CCN(C5CCNC5)C4)c3Cl)cccc2n1Cc1ccccn1 (stereo not drawn) [Compound 22, N-(2-((2,4-dichloro-3-((2-methoxy-1-(pyridin-2-ylmethyl)-1H-benzo[d]imidazol-4-yloxy)methyl)phenyl)(methyl)amino)-2-oxoethyl)-1,3′-bipyrrolidine-3-carboxamide] | 160 ± 47 nM | < 0.1 µM | > 1 µM
CNC(=O)N1CCC(N2CCC(C(=O)NCC(=O)N(C)c3ccc(Cl)c(COc4cccc5c4nc(OC)n5Cc4ccccn4)c3Cl)C2)C1 (stereo not drawn) [Compound 24, N3-(2-((2,4-dichloro-3-((2-methoxy-1-(pyridin-2-ylmethyl)-1H-benzo[d]imidazol-4-yloxy)methyl)phenyl)(methyl)amino)-2-oxoethyl)-N1′-methyl-1,3′-bipyrrolidine-1′,3-dicarboxamide] | 171 ± 97 nM | < 0.1 µM | 0.1 to 1 µM
COc1nc2c(OCc3c(Cl)ccc(N(C)C(=O)CNC(=O)CCC4CN=C(NC(C)=O)NC4)c3Cl)cccc2n1Cc1ccccn1 (stereo not drawn) [Compound 25, 3-(2-acetamido-1,4,5,6-tetrahydropyrimidin-5-yl)-N-(2-((2,4-dichloro-3-(((2-methoxy-1-(pyridin-2-ylmethyl)-1H-benzo[d]imidazol-4-yl)oxy)methyl)phenyl)(methyl)amino)-2-oxoethyl)propanamide] | 74 ± 6 nM | < 0.1 µM | 0.1 to 1 µM
CNC(=O)c1ccc(CCC(=O)NCC(=O)N(C)c2ccc(Cl)c(COc3cccc4c(OCc5ccccn5)cc(C)nc34)c2Cl)cn1 [Compound 27, 5-(3-((2-((2,4-dichloro-3-(((2-methyl-4-(pyridin-2-ylmethoxy)quinolin-8-yl)oxy)methyl)phenyl)(methyl)amino)-2-oxoethyl)amino)-3-oxopropyl)-N-methylpicolinamide] | 11 nM | 0.1 to 1 µM | 0.1 to 1 µM
CC(=O)Nc1ccc(CCC(=O)NCC(=O)N(C)c2ccc(Cl)c(COc3cccc4c(OCc5ccccn5)cc(C)nc34)c2Cl)cc1 [Compound 28, 3-(4-acetamidophenyl)-N-(2-((2,4-dichloro-3-(((2-methyl-4-(pyridin-2-ylmethoxy)quinolin-8-yl)oxy)methyl)phenyl)(methyl)amino)-2-oxoethyl)propanamide] | 3 nM | 0.1 to 1 µM | < 0.1 µM
Cc1cc(OCc2ccccn2)c2cccc(OCc3c(Cl)ccc(N(C)C(=O)CNC(=O)CCc4ccc(NS(C)(=O)=O)cc4)c3Cl)c2n1 [Compound 29, N-(2-((2,4-dichloro-3-(((2-methyl-4-(pyridin-2-ylmethoxy)quinolin-8-yl)oxy)methyl)phenyl)(methyl)amino)-2-oxoethyl)-3-(4-(methylsulfonamido)phenyl)propanamide] | 8 ± 3 nM | 0.1 to 1 µM | > 1 µM
CNC(=O)c1ccc(CCC(=O)NCC(=O)N(C)c2ccc(Cl)c(COc3cccc4c(OCc5ccccn5)cc(C)nc34)c2Cl)cc1 [Compound 30] | 3 nM | 0.1 to 1 µM | 0.1 to 1 µM
COc1nc2c(OCc3c(Cl)ccc(N(C)C(=O)CNC(=O)CCc4ccc(NC(C)=O)nc4)c3Cl)cccc2n1Cc1ccccn1 [Compound 32, 3-(6-acetamidopyridin-3-yl)-N-(2-((2,4-dichloro-3-(((2-methoxy-1-(pyridin-2-ylmethyl)-1H-benzo[d]imidazol-4-yl)oxy)methyl)phenyl)(methyl)amino)-2-oxoethyl)propanamide] | 25 ± 8 nM | < 0.1 µM | < 0.1 µM
CNC(=O)c1ccc(CCC(=O)NCC(=O)N(C)c2ccc(Cl)c(COc3cccc4c3nc(OC)n4Cc3ccccn3)c2Cl)cc1 [Compound 33, 4-(3-((2-((2,4-dichloro-3-(((2-methoxy-1-(pyridin-2-ylmethyl)-1H-benzo[d]imidazol-4-yl)oxy)methyl)phenyl)(methyl)amino)-2-oxoethyl)amino)-3-oxopropyl)-N-methylbenzamide] | 7 ± 1 nM | < 0.1 µM | < 0.1 µM

— patent US8252793B2, “Bradykinin receptor agonists and uses thereof to treat ocular hypertension and glaucoma” (Alcon Research, Ltd., priority 2010, dated 2012)
